Assay results published in the supplement of paper PMC10949913.

Key:
Settings in all cases: 48 h
CU-ACC1 [1] = test: AC50 viability; higher = less potent
Procedure, shortened: (§1)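 Three adrenocortical carcinoma cell lines were seeded at 500–1,000 cells/well in 5 µL medium in 1,536-well plates. 23 nL of each MIPE 5.0 library compound was added at 11 concentrations. After 48 h (per the protocol name), CellTiter-Glo was added for 15 minutes at room temperature and luminescence was read. Signals were normalised per plate to vehicle and empty-well controls. AC50 and area under the curve came from fitted concentration-response curves, keeping only inhibitory or non-responding curve classes.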

CU-ACC2 [2] = test: AC50 viability; higher = less potent
Procedure, shortened: as §1

NCI-H295R [3] = test: AC50 viability; higher = less potent
Procedure, shortened: as §1

CU-ACC1 [4] = test: area under concentration-response curve (viability) (AUC (a.u.)); higher = less active
Procedure, shortened: as §1

CU-ACC2 [5] = test: as above
Procedure, shortened: as §1

NCI-H295R [6] = test: as above
Procedure, shortened: as §1

Structure (SMILES) | AC50 viability (CU-ACC1 [1]) [µM] | AC50 viability (CU-ACC2 [2]) [µM] | AC50 viability (NCI-H295R [3]) [µM] | area under concentration-response curve (CU-ACC1 [4]) | area under concentration-response curve (CU-ACC2 [5]) | area under concentration-response curve (NCI-H295R [6])
O[C@H]1CC[C@@H](Oc2cccc3cnc(Nc4ccc5nc[nH]c5c4)nc23)CC1 | 1.66 | 1.32 | 2.63 | 403 | 331 | 409
CN1CCCN(C(=O)c2cccc(-c3ccc(/C=C4/C(=O)Nc5ccc(Cl)cc54)o3)c2)CC1 | 29.5 | 23.5 | 20.9 | 392 | 379 | 361
COc1cccc2c1C(=O)c1c(O)c3c(c(O)c1C2=O)C[C@@](O)(C(=O)CO)CC3OC1CC(N2CCOC(OC)C2)C(O)C(C)O1 (stereo not given in full) | 0.0833 | 0.059 | 0.0833 | 284 | 302 | 282
Cc1cc2c(C(N)=O)cccc2n1-c1nc2c(c(NCc3ccccc3)n1)COCC2 | 3.32 | 2.09 | 2.63 | 306 | 467 | 436
CO[C@H]1CC[C@H](N2C(=O)CNc3ncc(-c4ccc(C(C)(C)O)nc4)nc32)CC1 | 16.6 | 18.6 | 18.6 | 462 | 570 | 502
CNC(=O)c1ccccc1Sc1ccc2c(/C=C/c3ccccn3)n[nH]c2c1 | 37.2 | 16.6 | 3.72 | 368 | 493 | 461
COc1ccc(Nc2cc(-c3cnc(N)nc3)nc(N3CCOCC3)n2)cn1 | 1.05 | 1.05 | 1.66 | 413 | 493 | 392
CO[C@@H](C)Cn1c(=O)n(C)c2cnc3ccc(-c4cncc(C(C)(C)O)c4)cc3c21 | 0.742 | 0.661 | 1.05 | 398 | 419 | 445
COc1cc(Nc2c(C#N)cnc3cc(OCCCN4CCN(C)CC4)c(OC)cc23)c(Cl)cc1Cl | 5.9 | 8.33 | 7.42 | 412 | 451 | 430
Fc1ccc2[nH]ccc2c1-c1nc(N2CCOCC2)c2sc(CN3CCN(CC4CC4)CC3)cc2n1 | 18.6 | 26.3 | 20.9 | 482 | 462 | 487
CC(C)c1cc(C(=O)N2Cc3ccc(CN4CCN(C)CC4)cc3C2)c(O)cc1O | 2.35 | 0.833 | 3.72 | 371 | 445 | 445
CC(C)N1N/C(=C2\C=c3cc(O)ccc3=N2)c2c(N)ncnc21 | 1.66 | 2.63 | 2.09 | 401 | 520 | 472
NC(=O)/C(=C/n1cnc(-c2cc(C(F)(F)F)cc(C(F)(F)F)c2)n1)c1cncnc1 | 11.8 | 5.9 | 9.34 | 322 | 459 | 438
COc1cc(C(=O)N2CCC(N3CCN(C)CC3)CC2)ccc1Nc1ncc2c(n1)N(C)c1ccccc1C(=O)N2C | 26.3 | 20.9 | 16.6 | 377 | 423 | 389
c1ccc2c(CCNc3ccc(Nc4ccncc4)cc3)c[nH]c2c1 | 5.9 | 10.5 | 1.86 | 363 | 374 | 400
NCCCC[C@H](NC(=O)[C@@H](NC(=O)[C@H](Cc1c[nH]c2ccccc12)NC(=O)[C@H](CCCCN)NC(=O)[C@H](CCCCN)NC(=O)[C@H](Cc1c[nH]c2ccccc12)NC(=O)[C@H](Cc1c[nH]c2ccccc12)NC(=O)[C@H](CCCCN)NC(=O)[C@@H](N)CCCCN)C(c1ccccc1)c1ccccc1)C(N)=O | 10.5 | 3.72 | 9.34 | 301 | 301 | 310
CCCCCCCCc1ccc(CCC(N)(CO)CO)cc1 | 10.5 | 8.33 | 11.8 | 357 | 384 | 395
CN(C)c1cc2c(cc1Sc1nc3c(N)nccc3n1CCNCC(C)(C)C)OCO2 | 2.95 | 2.95 | 2.35 | 391 | 499 | 467
Cc1ccc(NC(=O)NCc2ccc3c(c2)CN(C2CCC(=O)NC2=O)C3=O)cc1Cl (stereo not given) | 0.00372 | 0.0332 | 0.0166 | 137 | 289 | 234
c1ccc(Cn2c(-c3ccc(OCC(C4CCNCC4)n4c(-c5ccccc5)nc5ccccc54)cc3)nc3ccccc32)cc1 (stereo not given) | 11.8 | 11.8 | 9.34 | 387 | 391 | 363
